{"source": "ChEMBL document CHEMBL2074542", "about": "“Differential recognition of beta -lactam antibiotics by intestinal and renal peptide transporters, PEPT 1 and PEPT 2” (J Biol Chem, 1995)", "molecules": {"B1": {"name": "Solute carrier family 15 member 2 (Rattus norvegicus), Q63424 (protein)", "chain": "MNPFQKNESKETLFSPVSTEEMLPRPPSPPKKSPPKIFGSSYPVSIAFIVVNEFCERFSYYGMKAVLTLYFLYFLHWNEDTSTSVYHAFSSLCYFTPILGAAIADSWLGKFKTIIYLSLVYVLGHVFKSLGAIPILGGKMLHTILSLVGLSLIALGTGGIKPCVAAFGGDQFEEEHAEARTRYFSVFYLAINAGSLISTFITPMLRGDVKCFGQDCYALAFGVPGLLMVLALVVFAMGSKMYRKPPPEGNIVAQVIKCIWFALCNRFRNRSGDLPKRQHWLDWAAEKYPKHLIADVKALTRVLFLYIPLPMFWALLDQQGSRWTLQANKMNGDLGFFVLQPDQMQVLNPFLVLIFIPLFDLVIYRLISKCRINFSSLRKMAVGMILACLAFAVAALVETKINGMIHPQPASQEIFLQVLNLADGDVKVTVLGSRNNSLLVESVSSFQNTTHYSKLHLEAKSQDLHFHLKYNSLSVHNDHSVEEKNCYQLLIHQDGESISSMLVKDTGIKPANGMAAIRFINTLHKDLNISLDTDAPLSVGKDYGVSAYRTVLRGKYPAVHCETEDKVFSLDLGQLDFGTTYLFVITNITSQGLQAWKAEDIPVNKLSIAWQLPQYVLVTAAEVMFSVTGLEFSYSQAPSSMKSVLQAAWLLTVAVGNIIVLVVAQFSGLAQWAEFVLFSCLLLVVCLIFSVMAYYYVPLKSEDTREATDKQIPAVQGNMINLETKNTRL"}}, "key": {"[1]": {"target": "T1, Solute carrier family 15 member 1 (Homo sapiens, UniProt P46059)", "T1 sequence (P46059 whole entry)": "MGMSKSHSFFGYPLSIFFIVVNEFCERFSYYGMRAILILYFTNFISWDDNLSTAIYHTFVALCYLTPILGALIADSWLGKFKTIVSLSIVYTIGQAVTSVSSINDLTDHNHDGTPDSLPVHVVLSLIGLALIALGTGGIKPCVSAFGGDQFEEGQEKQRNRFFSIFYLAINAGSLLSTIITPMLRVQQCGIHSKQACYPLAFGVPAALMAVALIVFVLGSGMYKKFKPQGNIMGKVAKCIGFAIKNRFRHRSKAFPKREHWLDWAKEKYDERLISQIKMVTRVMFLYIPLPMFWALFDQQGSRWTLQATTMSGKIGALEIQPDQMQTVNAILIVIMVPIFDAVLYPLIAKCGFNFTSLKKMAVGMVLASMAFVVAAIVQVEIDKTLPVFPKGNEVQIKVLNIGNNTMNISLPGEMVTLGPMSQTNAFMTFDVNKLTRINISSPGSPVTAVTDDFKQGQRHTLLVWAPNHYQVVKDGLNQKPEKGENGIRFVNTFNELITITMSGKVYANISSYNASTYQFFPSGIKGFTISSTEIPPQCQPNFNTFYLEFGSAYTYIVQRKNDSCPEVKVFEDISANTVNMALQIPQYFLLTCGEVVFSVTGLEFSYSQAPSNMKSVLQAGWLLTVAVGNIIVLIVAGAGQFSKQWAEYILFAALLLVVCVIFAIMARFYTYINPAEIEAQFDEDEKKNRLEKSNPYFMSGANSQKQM", "description": "TP_TRANSPORTER: inhibition of Gly-Sar uptake (Gly-Sar: 25 uM) in PEPT1-expressing HeLa cells"}, "[2]": {"target": "T2, Solute carrier family 15 member 2 (Homo sapiens, UniProt Q16348)", "T2 sequence (Q16348 whole entry)": "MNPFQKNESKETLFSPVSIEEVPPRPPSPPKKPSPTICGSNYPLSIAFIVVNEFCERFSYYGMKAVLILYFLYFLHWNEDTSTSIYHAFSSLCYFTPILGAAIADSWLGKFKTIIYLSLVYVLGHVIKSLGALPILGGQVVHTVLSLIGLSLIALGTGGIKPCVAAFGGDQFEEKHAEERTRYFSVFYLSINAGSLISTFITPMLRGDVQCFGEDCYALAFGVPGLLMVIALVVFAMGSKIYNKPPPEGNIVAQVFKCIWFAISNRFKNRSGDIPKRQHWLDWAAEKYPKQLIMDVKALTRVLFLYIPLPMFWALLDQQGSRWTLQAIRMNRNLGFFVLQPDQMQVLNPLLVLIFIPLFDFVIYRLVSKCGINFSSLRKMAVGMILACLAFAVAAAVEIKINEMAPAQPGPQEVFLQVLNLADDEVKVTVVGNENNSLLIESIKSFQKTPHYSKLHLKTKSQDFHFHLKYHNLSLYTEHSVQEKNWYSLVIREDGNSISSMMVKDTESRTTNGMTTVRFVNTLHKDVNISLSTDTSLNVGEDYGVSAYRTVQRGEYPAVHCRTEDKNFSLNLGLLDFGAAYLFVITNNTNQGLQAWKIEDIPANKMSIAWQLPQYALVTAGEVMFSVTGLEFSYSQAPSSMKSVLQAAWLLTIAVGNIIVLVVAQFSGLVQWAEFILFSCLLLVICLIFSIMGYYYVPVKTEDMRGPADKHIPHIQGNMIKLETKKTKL", "assay": "TP_TRANSPORTER: inhibition of Gly-Sar uptake (Gly-Sar: 50 uM) in PEPT2-expressing HeLa cells", "type": "functional, cell-based"}, "[3]": {"target": "T2, Solute carrier family 15 member 2", "assay": "TP_TRANSPORTER: inhibition of Gly-Sar uptake in SKPT cells", "type": "functional, cell-based"}, "[4]": {"target": "T1, Solute carrier family 15 member 1", "assay": "TP_TRANSPORTER: inhibition of Gly-Sar uptake (Gly-Sar: 5 uM) in Caco-2 cells", "type": "functional, cell-based"}, "[5]": {"target": "T3, Solute carrier family 15 member 2 (Homo sapiens) (UniProt Q16348)", "T3 sequence (whole entry)": "T2 sequence (Q16348 whole entry)", "assay": "TP_TRANSPORTER: uptake in PEPT2-expressing HeLa cells", "type": "functional, cell-based"}, "[6]": {"target": "T2, Solute carrier family 15 member 2", "assay": "TP_TRANSPORTER: inhibition of Cephalexin uptake in SKPT cells", "type": "functional, cell-based"}, "[7]": {"substrate": "CC1=C(C(=O)O)N2C(=O)[C@@H](NC(=O)[C@H](N)c3ccccc3)[C@H]2SC1", "assay": "TP_TRANSPORTER: uptake in SKPT cells", "type": "functional, cell-based"}}, "note": "Peptide text beside a SMILES is read from it."}
{"molecule": "CC1(C)S[C@@H]2[C@H](NC(=O)C3(N)CCCCC3)C(=O)N2[C@H]1C(=O)O", "note": "[CYCLACILLIN]", "values": [{"measurement": "IC50", "setting": "[1]", "result": 350, "unit": "µM"}, {"measurement": "IC50", "setting": "[2]", "result": 610, "unit": "µM"}, {"measurement": "Ki", "setting": "[3]", "result": 39.1, "unit": "µM"}, {"measurement": "IC50", "setting": "[4]", "result": 600, "unit": "µM"}]}
{"molecule": "CC1=C(C(=O)O)N2C(=O)[C@@H](NC(=O)[C@H](N)c3ccccc3)[C@H]2SC1", "note": "[CEPHALEXIN ANHYDROUS]", "values": [{"measurement": "Ki", "setting": "[3]", "result": 68.2, "unit": "µM"}, {"measurement": "Activity", "setting": "[5]", "result": "substrate [+]"}]}
{"molecule": "CN(CC(=O)O)C(=O)CN", "note": "[GLYCYLSARCOSINE] (HELM PEPTIDE1{G.[Sar]}$$$$V2.0)", "values": [{"measurement": "Ki", "setting": "[6]", "result": 64, "unit": "µM"}]}
{"molecule": "CC1=C(C(=O)O)N2C(=O)[C@@H](NC(=O)[C@H](N)c3ccc(O)cc3)[C@H]2SC1", "note": "[CEFADROXIL]", "values": [{"measurement": "IC50", "setting": "[1]", "result": 870, "unit": "µM"}, {"measurement": "IC50", "setting": "[2]", "result": 66, "unit": "µM"}, {"measurement": "Ki", "setting": "[3]", "result": 2.8, "unit": "µM"}, {"measurement": "IC50", "setting": "[4]", "result": 5400, "unit": "µM"}]}
{"molecule": "B1", "values": [{"measurement": "Km", "setting": "[7]", "result": 49, "unit": "µM"}]}
